According to patent US10770169B2, “Method of providing a treatment to a subject based on a dynamic pathway map” (THE REGENTS OF THE UNIVERSITY OF CALIFORNIA, priority 2010, dated 2020):
Read-outs that look alike come from different tables or passages of the source.

Test system: panel of 55 breast cancer cell lines
Test: Cell growth inhibition assay (Cell Titer Glo, 72 h, 9 doses; GI50, TGI, LC50)
Type: cell-based, human

## C[C@@H](Oc1cc(-n2cnc3ccc(CN4CCN(C)CC4)cc32)sc1C(N)=O)c1ccccc1C(F)(F)F [GSK461364A]
600MPE cell line, censored GI50 values, value is the negative log10 of mol/L
  GI50: 5.16
AU565 cell line, censored GI50 values, value is the negative log10 of mol/L
  GI50: 8.35
BT474 cell line, censored GI50 values, value is the negative log10 of mol/L
  GI50: 5.07
BT483 cell line, censored GI50 values, value is the negative log10 of mol/L
  GI50: 5.35
CAMA1 cell line, censored GI50 values, value is the negative log10 of mol/L
  GI50: 5.17
HCC38 cell line, censored GI50 values, value is the negative log10 of mol/L
  GI50: 7.42
HCC70 cell line, censored GI50 values, value is the negative log10 of mol/L
  GI50: 7.01
HCC1143 cell line, censored GI50 values, value is the negative log10 of mol/L
  GI50: 7.13
HCC1187 cell line, censored GI50 values, value is the negative log10 of mol/L
  GI50: 7.48
HCC1395 cell line, censored GI50 values, value is the negative log10 of mol/L
  GI50: 8.31
HCC1419 cell line, censored GI50 values, value is the negative log10 of mol/L
  GI50: 5.12
HCC1428 cell line, censored GI50 values, value is the negative log10 of mol/L
  GI50: 5.26
HCC1500 cell line, censored GI50 values, value is the negative log10 of mol/L
  GI50: 7.89
HCC1806 cell line, censored GI50 values, value is the negative log10 of mol/L
  GI50: 7.95
HCC1937 cell line, censored GI50 values, value is the negative log10 of mol/L
  GI50: 7.51
HCC1954 cell line, censored GI50 values, value is the negative log10 of mol/L
  GI50: 8.16
HCC2185 cell line, censored GI50 values, value is the negative log10 of mol/L
  GI50: 8.26
HCC3153 cell line, censored GI50 values, value is the negative log10 of mol/L
  GI50: 7.50
MCF7 cell line, censored GI50 values, value is the negative log10 of mol/L
  GI50: 7.82
MDAMB134VI cell line, censored GI50 values, value is the negative log10 of mol/L
  GI50: 7.83
MDAMB157 cell line, censored GI50 values, value is the negative log10 of mol/L
  GI50: 8.98
MDAMB175VII cell line, censored GI50 values, value is the negative log10 of mol/L
  GI50: 5.21
MDAMB231 cell line, censored GI50 values, value is the negative log10 of mol/L
  GI50: 7.68
MDAMB361 cell line, censored GI50 values, value is the negative log10 of mol/L
  GI50: 8.72
MDAMB415 cell line, censored GI50 values, value is the negative log10 of mol/L
  GI50: 7.08
MDAMB436 cell line, censored GI50 values, value is the negative log10 of mol/L
  GI50: 7.90
MDAMB453 cell line, censored GI50 values, value is the negative log10 of mol/L
  GI50: 7.97
MDAMB468 cell line, censored GI50 values, value is the negative log10 of mol/L
  GI50: 8.41
SKBR3 cell line, censored GI50 values, value is the negative log10 of mol/L
  GI50: 7.78
SUM149PT cell line, censored GI50 values, value is the negative log10 of mol/L
  GI50: 7.72
SUM159PT cell line, censored GI50 values, value is the negative log10 of mol/L
  GI50: 7.49
SUM185PE cell line, censored GI50 values, value is the negative log10 of mol/L
  GI50: 5.66
SUM1315MO2 cell line, censored GI50 values, value is the negative log10 of mol/L
  GI50: 7.51
Cell line 600MPE, value is the negative log10 of mol/L
  GI50: 5.16
Cell line AU565, value is the negative log10 of mol/L
  GI50: 8.35

## COc1cc(Nc2c(C#N)cnc3cc(OCCCN4CCN(C)CC4)c(OC)cc23)c(Cl)cc1Cl [Bosutinib]
Homo sapiens, 600MPE cell line, censored GI50 values, read-out: GI50 (converted)
  GI50: 8.91 µM
Homo sapiens, AU565, AU565 cell line, censored GI50 values, read-out: GI50 (converted)
  GI50: 2.14 µM
Homo sapiens, AU565, cell line AU565, read-out: GI50 (converted)
  GI50: 2.14 µM
Homo sapiens, BT-20, BT20 cell line, censored GI50 values, read-out: GI50 (converted)
  GI50: 1.38 µM
Homo sapiens, BT-20, cell line BT20, read-out: GI50 (converted)
  GI50: 1.38 µM
Homo sapiens, BT-474, BT474 cell line, censored GI50 values, read-out: GI50 (converted)
  GI50: 0.724 µM
Homo sapiens, BT-474, cell line BT474, read-out: GI50 (converted)
  GI50: 0.724 µM
Homo sapiens, BT-483, BT483 cell line, censored GI50 values, read-out: GI50 (converted)
  GI50: 3.55 µM
Homo sapiens, BT-483, cell line BT483, read-out: GI50 (converted)
  GI50: 3.55 µM
Homo sapiens, CAMA-1, CAMA1 cell line, censored GI50 values, read-out: GI50 (converted)
  GI50: 3.24 µM
Homo sapiens, CAMA-1, cell line CAMA1, read-out: GI50 (converted)
  GI50: 3.24 µM
Homo sapiens, HCC38, HCC38 cell line, censored GI50 values, read-out: GI50 (converted)
  GI50: 0.891 µM
Homo sapiens, HCC38, cell line HCC38, read-out: GI50 (converted)
  GI50: 0.891 µM
Homo sapiens, HCC70, HCC70 cell line, censored GI50 values, read-out: GI50 (converted)
  GI50: 0.891 µM
Homo sapiens, HCC70, cell line HCC70, read-out: GI50 (converted)
  GI50: 0.891 µM
Homo sapiens, HCC1143, HCC1143 cell line, censored GI50 values, read-out: GI50 (converted)
  GI50: 4.9 µM
Homo sapiens, HCC1143, cell line HCC1143, read-out: GI50 (converted)
  GI50: 4.9 µM
Homo sapiens, HCC1187, HCC1187 cell line, censored GI50 values, read-out: GI50 (converted)
  GI50: 3.16 µM
Homo sapiens, HCC1187, cell line HCC1187, read-out: GI50 (converted)
  GI50: 3.16 µM
Homo sapiens, HCC1419, HCC1419 cell line, censored GI50 values, read-out: GI50 (converted)
  GI50: 0.759 µM
Homo sapiens, HCC1419, cell line HCC1419, read-out: GI50 (converted)
  GI50: 0.759 µM
Homo sapiens, HCC1428, HCC1428 cell line, censored GI50 values, read-out: GI50 (converted)
  GI50: 3.89 µM
Homo sapiens, HCC1428, cell line HCC1428, read-out: GI50 (converted)
  GI50: 3.89 µM
Homo sapiens, HCC1500, HCC1500 cell line, censored GI50 values, read-out: GI50 (converted)
  GI50: 2.57 µM
Homo sapiens, HCC1500, cell line HCC1500, read-out: GI50 (converted)
  GI50: 2.57 µM
Homo sapiens, HCC1806, HCC1806 cell line, censored GI50 values, read-out: GI50 (converted)
  GI50: 2.09 µM
Homo sapiens, HCC1806, cell line HCC1806, read-out: GI50 (converted)
  GI50: 2.09 µM
Homo sapiens, HCC1937, HCC1937 cell line, censored GI50 values, read-out: GI50 (converted)
  GI50: 1.45 µM
Homo sapiens, HCC1937, cell line HCC1937, read-out: GI50 (converted)
  GI50: 1.45 µM
Homo sapiens, HCC1954, HCC1954 cell line, censored GI50 values, read-out: GI50 (converted)
  GI50: 1.17 µM
Homo sapiens, HCC1954, cell line HCC1954, read-out: GI50 (converted)
  GI50: 1.17 µM
Homo sapiens, HCC2185 cell line, censored GI50 values, read-out: GI50 (converted)
  GI50: 5.01 µM
Homo sapiens, HCC3153 cell line, censored GI50 values, read-out: GI50 (converted)
  GI50: 3.8 µM
Homo sapiens, LY2 cell line, censored GI50 values, read-out: GI50 (converted)
  GI50: 2.45 µM
Homo sapiens, MCF7, MCF7 cell line, censored GI50 values, read-out: GI50 (converted)
  GI50: 2.57 µM
Homo sapiens, MCF7, cell line MCF7, read-out: GI50 (converted)
  GI50: 2.57 µM
Homo sapiens, MDA-MB-175-VII, MDAMB175VII cell line, censored GI50 values, read-out: GI50 (converted)
  GI50: 1.07 µM
Homo sapiens, MDA-MB-361, MDAMB361 cell line, censored GI50 values, read-out: GI50 (converted)
  GI50: 1.51 µM
Homo sapiens, MDA-MB-436, MDAMB436 cell line, censored GI50 values, read-out: GI50 (converted)
  GI50: 5.01 µM
Homo sapiens, MDA-MB-453, MDAMB453 cell line, censored GI50 values, read-out: GI50 (converted)
  GI50: 2.34 µM
Homo sapiens, MDA-MB-468, MDAMB468 cell line, censored GI50 values, read-out: GI50 (converted)
  GI50: 2.57 µM
Homo sapiens, SK-BR-3, SKBR3 cell line, censored GI50 values, read-out: GI50 (converted)
  GI50: 3.89 µM
Homo sapiens, SUM52PE, SUM52PE cell line, censored GI50 values, read-out: GI50 (converted)
  GI50: 1.45 µM
Homo sapiens, SUM149PT, SUM149PT cell line, censored GI50 values, read-out: GI50 (converted)
  GI50: 0.759 µM
Homo sapiens, SUM1315MO2, SUM1315MO2 cell line, censored GI50 values, read-out: GI50 (converted)
  GI50: 0.871 µM
Homo sapiens, SUM-159-PT, SUM159PT cell line, censored GI50 values, read-out: GI50 (converted)
  GI50: 1.38 µM
Homo sapiens, T47D, T47D cell line, censored GI50 values, read-out: GI50 (converted)
  GI50: 5.62 µM
Homo sapiens, UACC-812, UACC812 cell line, censored GI50 values, read-out: GI50 (converted)
  GI50: 2.75 µM
Homo sapiens, ZR-75-1, ZR751 cell line, censored GI50 values, read-out: GI50 (converted)
  GI50: 14.1 µM
Homo sapiens, ZR-75B, ZR75B cell line, censored GI50 values, read-out: GI50 (converted)
  GI50: 7.08 µM
Homo sapiens, cell line 600MPE, read-out: GI50 (converted)
  GI50: 8.91 µM
Homo sapiens, cell line HCC2185, read-out: GI50 (converted)
  GI50: 5.01 µM
Homo sapiens, cell line HCC3153, read-out: GI50 (converted)
  GI50: 3.8 µM
Homo sapiens, cell line LY2, read-out: GI50 (converted)
  GI50: 2.45 µM
